How the values were obtained:
Format in all cases: functional
NCI-H460 = experiment: Growth inhibition of human NCI-H460 cells assessed as cell growth at 10^-6 M by sulforhodamine B assay; settings: read-out: Activity
SF-268 [1] = experiment: Growth inhibition of human SF268 cells assessed as cell growth at 10^-7 M by sulforhodamine B assay; settings: read-out: Activity
HL-60(TB) [2] = experiment: Growth inhibition of human HL-60(TB) cells assessed as cell growth at 10^-4 M by sulforhodamine B assay; settings: read-out: Activity
NCI-H23 [3] = experiment: Growth inhibition of human NCI-H23 cells assessed as cell growth at 10^-8 M by sulforhodamine B assay; settings: read-out: Activity
UACC-62 = experiment: Growth inhibition of human UACC62 cells assessed as cell growth at 10^-7 M by sulforhodamine B assay; settings: read-out: Activity
T47D = experiment: Growth inhibition of human T47D cells assessed as cell growth at 10^-8 M by sulforhodamine B assay; settings: read-out: Activity
[4] = Growth inhibition of human Hs 578T cells by sulforhodamine B assay
BT-549 = experiment: Growth inhibition of human BT549 cells assessed as cell growth at 10^-6 M by sulforhodamine B assay; settings: read-out: Activity
SK-MEL-28 [5] = experiment: Growth inhibition of human SK-MEL-28 cells assessed as cell growth at 10^-8 M by sulforhodamine B assay; settings: read-out: Activity
DU-145 [6] = experiment: Growth inhibition of human DU145 cells assessed as cell growth at 10^-4 M by sulforhodamine B assay; settings: read-out: Activity
[7] = Growth inhibition of human NCI-ADR-RES cells assessed as cell growth at 10^-8 M by sulforhodamine B assay; settings: read-out: Activity
SNB-75 [8] = experiment: Growth inhibition of human SNB75 cells by sulforhodamine B assay
SNB-75 [9] = experiment: Growth inhibition of human SNB75 cells assessed as cell growth at 10^-7 M by sulforhodamine B assay; settings: read-out: Activity
HOP-92 = experiment: Growth inhibition of human HOP92 cells by sulforhodamine B assay
NCI-H226 = experiment: Growth inhibition of human NCI-H226 cells assessed as cell growth at 10^-4 M by sulforhodamine B assay; settings: read-out: Activity
HCT-15 = experiment: Growth inhibition of human HCT15 cells assessed as cell growth at 10^-4 M by sulforhodamine B assay; settings: read-out: Activity
A549 = experiment: Growth inhibition of human A549/ATCC cells assessed as cell growth at 10^-7 M by sulforhodamine B assay; settings: read-out: Activity
U-251 [10] = experiment: Growth inhibition of human U251 cells assessed as cell growth at 10^-6 M by sulforhodamine B assay; settings: read-out: Activity
NCI-H23 [11] = experiment: Growth inhibition of human NCI-H23 cells assessed as cell growth at 10^-6 M by sulforhodamine B assay; settings: read-out: Activity
SN12C = experiment: Growth inhibition of human SN12C cells assessed as cell growth at 10^-7 M by sulforhodamine B assay; settings: read-out: Activity
CCRF-CEM = experiment: Growth inhibition of human CCRF-CEM cells by sulforhodamine B assay
HCT-116 [12] = experiment: Growth inhibition of human HCT116 cells by sulforhodamine B assay
DU-145 [13] = experiment: Growth inhibition of human DU145 cells by sulforhodamine B assay
U-251 [14] = experiment: Growth inhibition of human U251 cells assessed as cell growth at 10^-7 M by sulforhodamine B assay; settings: read-out: Activity
MDA-MB-435 = experiment: Growth inhibition of human MDA-MB-435 cells assessed as cell growth at 10^-7 M by sulforhodamine B assay; settings: read-out: Activity
OVCAR-8 = experiment: Growth inhibition of human OVCAR8 cells assessed as cell growth at 10^-4 M by sulforhodamine B assay; settings: read-out: Activity
PC-3 = experiment: Growth inhibition of human PC3 cells assessed as cell growth at 10^-4 M by sulforhodamine B assay; settings: read-out: Activity
NCI-H522 = experiment: Growth inhibition of human NCI-H522 cells by sulforhodamine B assay
SF-268 [15] = experiment: Growth inhibition of human SF268 cells by sulforhodamine B assay
SR = experiment: Growth inhibition of human SR cells assessed as cell growth at 10^-4 M by sulforhodamine B assay; settings: read-out: Activity
HCT-116 [16] = experiment: Growth inhibition of human HCT116 cells assessed as cell growth at 10^-7 M by sulforhodamine B assay; settings: read-out: Activity
HL-60(TB) [17] = experiment: Growth inhibition of human HL-60(TB) cells assessed as cell growth at 10^-7 M by sulforhodamine B assay; settings: read-out: Activity
SK-MEL-28 [18] = experiment: Growth inhibition of human SK-MEL-28 cells by sulforhodamine B assay
SK-MEL-2 = experiment: Growth inhibition of human SK-MEL-2 cells assessed as cell growth at 10^-8 M by sulforhodamine B assay; settings: read-out: Activity
CAKI-1 = experiment: Growth inhibition of human CAKI-1 cells assessed as cell growth at 10^-6 M by sulforhodamine B assay; settings: read-out: Activity
MCF7 [19] = experiment: Growth inhibition of human MCF7 cells assessed as cell growth at 10^-8 M by sulforhodamine B assay; settings: read-out: Activity
MCF7 [20] = experiment: Growth inhibition of human MCF7 cells assessed as cell growth at 10^-6 M by sulforhodamine B assay; settings: read-out: Activity
UACC-257 = experiment: Growth inhibition of human UACC257 cells assessed as cell growth at 10^-6 M by sulforhodamine B assay; settings: read-out: Activity
SK-MEL-5 = experiment: Growth inhibition of human SK-MEL-5 cells assessed as cell growth at 10^-8 M by sulforhodamine B assay; settings: read-out: Activity
[21] = read-out: LC50 (the source's name)
[22] = read-out: pLC50 (the source's name) (converted)

For CC(C)=CC(=O)O[C@@H]1CC(C)(C)C[C@H]2C3=CC[C@@H]4[C@@]5(C)CC[C@H](O)C(C)(C)[C@@H]5CC[C@@]4(C)[C@]3(C)CC[C@@]12C(=O)O [Reduced Lantadene B], the growth at 1 µM (NCI-H460) was 78%, the growth at 0.1 µM (SF-268 [1]) was 93% and the growth at 100 µM (HL-60(TB) [2]) was -52%. The growth at 0.01 µM (NCI-H23 [3]) was 95%, the growth at 0.1 µM (UACC-62) was 90% and the growth at 0.01 µM (T47D) was 93%. The GI50 ([4]; read-out: GI50) was 3.04 µM, the CC50 [4, 21] was > 100 µM and the TGI ([4]; read-out: TGI) was 12.3 µM. The GI50 ([4]; read-out: pGI50 (converted)) was 3.02 µM, the CC50 [4, 22] was > 100 µM and the TGI ([4]; read-out: pTGI (converted)) was 12.3 µM. It also gave a growth at 1 µM (BT-549) of 93%, a growth at 0.01 µM (SK-MEL-28 [5]) of 100% and a growth at 100 µM (DU-145 [6]) of -75%. The growth at 0.01 µM [7] was 107%, the GI50 (SNB-75 [8]; read-out: GI50) was 12.7 µM and the CC50 (SNB-75 [8]; [21]) was > 100 µM. The TGI (SNB-75 [8]; read-out: TGI) was 41.2 µM, the GI50 (SNB-75 [8]; read-out: pGI50 (converted)) was 12.9 µM and the CC50 (SNB-75 [8]; [22]) was > 100 µM. It also gave a TGI (SNB-75 [8]; read-out: pTGI (converted)) of 40.7 µM, a growth at 0.1 µM (SNB-75 [9]) of 89% and a GI50 (HOP-92; read-out: GI50) of 1.51 µM. The CC50 (HOP-92; [21]) was 16.3 µM, the TGI (HOP-92; read-out: TGI) was 4.23 µM and the GI50 (HOP-92; read-out: pGI50 (converted)) was 1.51 µM. It also gave a CC50 (HOP-92; [22]) of 16.2 µM, a TGI (HOP-92; read-out: pTGI (converted)) of 4.27 µM and a growth at 100 µM (NCI-H226) of -56%. It also gave a growth at 100 µM (HCT-15) of -44%, a growth at 0.1 µM (A549) of 79% and a growth at 1 µM (U-251 [10]) of 73%. For the same compound, the growth at 1 µM (NCI-H23 [11]) was 91%, the growth at 0.1 µM (SN12C) was 96% and the GI50 (CCRF-CEM; read-out: GI50) was 2.83 µM. The CC50 (CCRF-CEM; [21]) was > 100 µM, the TGI (CCRF-CEM; read-out: TGI) was 34.8 µM and the GI50 (CCRF-CEM; read-out: pGI50 (converted)) was 2.82 µM. The CC50 (CCRF-CEM; [22]) was > 100 µM, the TGI (CCRF-CEM; read-out: pTGI (converted)) was 34.7 µM and the GI50 (HCT-116 [12]; read-out: GI50) was 2.67 µM. For the same compound, the LC50 (HCT-116 [12]; read-out: LC50) was 50.2 µM, the TGI (HCT-116 [12]; read-out: TGI) was 15.9 µM and the GI50 (HCT-116 [12]; read-out: pGI50 (converted)) was 2.69 µM. For the same compound, the LC50 (HCT-116 [12]; read-out: pLC50 (converted)) was 50.1 µM, the TGI (HCT-116 [12]; read-out: pTGI (converted)) was 15.8 µM and the GI50 (DU-145 [13]; read-out: GI50) was 7.7 µM. It also gave a CC50 (DU-145 [13]; [21]) of 61.6 µM, a TGI (DU-145 [13]; read-out: TGI) of 23.5 µM and a GI50 (DU-145 [13]; read-out: pGI50 (converted)) of 7.76 µM. For the same compound, the CC50 (DU-145 [13]; [22]) was 61.7 µM, the TGI (DU-145 [13]; read-out: pTGI (converted)) was 23.4 µM and the growth at 0.1 µM (U-251 [14]) was 96%. It also gave a growth at 0.1 µM (MDA-MB-435) of 97%, a growth at 100 µM (OVCAR-8) of -40% and a growth at 100 µM (PC-3) of -71%. It also gave a GI50 (NCI-H522; read-out: GI50) of 4.22 µM, a CC50 (NCI-H522; [21]) of 71.3 µM and a TGI (NCI-H522; read-out: TGI) of 21.8 µM. It also gave a GI50 (NCI-H522; read-out: pGI50 (converted)) of 4.17 µM, a CC50 (NCI-H522; [22]) of 70.8 µM and a TGI (NCI-H522; read-out: pTGI (converted)) of 21.9 µM. It also gave a GI50 (SF-268 [15]; read-out: GI50) of 5.87 µM, an LC50 (SF-268 [15]; read-out: LC50) of 97.2 µM and a TGI (SF-268 [15]; read-out: TGI) of 26.1 µM. The GI50 (SF-268 [15]; read-out: pGI50 (converted)) was 5.89 µM, the LC50 (SF-268 [15]; read-out: pLC50 (converted)) was 97.7 µM and the TGI (SF-268 [15]; read-out: pTGI (converted)) was 26.3 µM. For the same compound, the growth at 100 µM (SR) was -26%, the growth at 0.1 µM (HCT-116 [16]) was 94% and the growth at 0.1 µM (HL-60(TB) [17]) was 105%. It also gave a GI50 (SK-MEL-28 [18]; read-out: GI50) of 4.89 µM, a CC50 (SK-MEL-28 [18]; [21]) of 70.1 µM and a TGI (SK-MEL-28 [18]; read-out: TGI) of 20.4 µM. The GI50 (SK-MEL-28 [18]; read-out: pGI50 (converted)) was 4.9 µM, the CC50 (SK-MEL-28 [18]; [22]) was 70.8 µM and the TGI (SK-MEL-28 [18]; read-out: pTGI (converted)) was 20.4 µM. For the same compound, the growth at 0.01 µM (SK-MEL-2) was 97%, the growth at 1 µM (CAKI-1) was 85% and the growth at 0.01 µM (MCF7 [19]) was 97%. It also gave a growth at 1 µM (MCF7 [20]) of 88%, a growth at 1 µM (UACC-257) of 98% and a growth at 0.01 µM (SK-MEL-5) of 93%.
